Data reported in ChEMBL document CHEMBL5244272 (Eur J Med Chem, 2021).

test system: Plasmodium falciparum; assay: Antimalarial activity against Plasmodium falciparum W2; type: functional, organism-based; conditions: not given

Structure (SMILES)	IC50 [nM]
C[C@H]1[C@H](N2CCN([C@@H]3O[C@H](CO)[C@@H](O)[C@H](O)[C@H]3O)CC2)O[C@@H]2O[C@]3(C)CC[C@H]4[C@H](C)CC[C@@H]1[C@@]24OO3	0.71
CC1(C)OOC2(OCCC34CC5CC(CC(C5)C3)C4)CCCC1C2 (stereo not given)	440
CC1(C)OOC2(OCCCC34CC5CC(CC(C5)C3)C4)CCCC1C2 (stereo not given)	160
CC1(C)OOC2(OCCc3ccccc3)CCCC1C2 (stereo not given)	250
C[C@H]1[C@H](N2CCN([C@@H]3O[C@@H](C)[C@H](O)[C@@H](O)[C@H]3O)CC2)O[C@@H]2O[C@]3(C)CC[C@H]4[C@H](C)CC[C@@H]1[C@@]24OO3	0.74
Cc1ccccc1COC12CCCC(C1)C(C)(C)OO2 (stereo not given)	630

test system: Plasmodium falciparum; assay: Antimalarial activity against chloroquine-sensitive Plasmodium falciparum HB3; type: functional, organism-based; conditions: not given

Structure (SMILES)	IC50 [nM]
CNCCO[C@H]1O[C@@H]2O[C@]3(C)CC[C@H]4[C@H](C)CC[C@@H]([C@H]1C)[C@@]24OO3	2.7

test system: Plasmodium falciparum; assay: Antimalarial activity against chloroquine-resistant Plasmodium falciparum K1; type: functional, organism-based; conditions: not given

Structure (SMILES)	IC50 [nM]
COC(=O)CC[C@@H](C)[C@H]1CC[C@H]2[C@@H]3CC[C@@H]4CC5(CC[C@]4(C)[C@H]3C[C@H](OC(C)=O)[C@]12C)OOC(C)(C(F)(F)F)O5 (stereo not given in full)	> 231
CNCCO[C@H]1O[C@@H]2O[C@]3(C)CC[C@H]4[C@H](C)CC[C@@H]([C@H]1C)[C@@]24OO3	2.4
CC1(OCc2ccccc2)CCC2CC1OO[C@]2(/C=C\c1ccc(F)cc1)c1ccccc1 (stereo not given in full)	29
COC(=O)CC[C@@H](C)[C@H]1CC[C@H]2[C@@H]3CC[C@@H]4CC5(CC[C@]4(C)[C@H]3C[C@H](OC(C)=O)[C@]12C)OOC(c1ccccc1)(C(F)(F)F)O5 (stereo not given in full)	> 231
CC1(OCc2ccccc2)CCC2CC1OO[C@]2(/C=C\c1ccc(Cl)cc1)c1ccccc1 (stereo not given in full)	23

test system: Plasmodium berghei; assay: Antimalarial activity against Plasmodium berghei infected in mouse; type: functional; conditions: Plasmodium berghei

Structure (SMILES)	ED50 [mg/kg]
C[C@H]1[C@@H](CCOCc2ccccc2F)O[C@@H]2O[C@]3(C)CC[C@H]4[C@H](C)CC[C@@H]1[C@@]24OO3	5.08
C[C@H]1[C@@H](Oc2ccc(C(F)(F)F)cc2)O[C@@H]2O[C@]3(C)CC[C@H]4[C@H](C)CC[C@@H]1[C@@]24OO3	2.12

test system: Plasmodium falciparum; assay: Antimalarial activity against Plasmodium falciparum K1; type: functional, organism-based; conditions: not given

Structure (SMILES)	IC50 [nM]
C[C@H]1[C@@H](OCc2ccc(C(=O)N(CCNc3ccnc4cc(Cl)ccc34)CC(=O)NC(C)(C)C)cc2)O[C@@H]2O[C@]3(C)CC[C@H]4[C@H](C)CC[C@@H]1[C@@]24OO3	19
C[C@H]1[C@H](N2CCN(C(=O)c3ccc(C(F)(F)F)cc3)CC2)O[C@@H]2O[C@]3(C)CC[C@H]4[C@H](C)CC[C@@H]1[C@@]24OO3	3.5
C[C@H]1[C@H](N2CCN(C(=O)Nc3ccc(F)cc3)CC2)O[C@@H]2O[C@]3(C)CC[C@H]4[C@H](C)CC[C@@H]1[C@@]24OO3	0.85
C[C@H]1[C@@H](OCc2ccc(C(=O)N(CCNc3ccnc4cc(Cl)ccc34)CC(=O)NC3CCCCC3)cc2)O[C@@H]2O[C@]3(C)CC[C@H]4[C@H](C)CC[C@@H]1[C@@]24OO3	23
C[C@H]1[C@@H](OCc2ccc(C(=O)N(CCCNc3ccnc4cc(Cl)ccc34)CC(=O)NC3CCCCC3)cc2)O[C@@H]2O[C@]3(C)CC[C@H]4[C@H](C)CC[C@@H]1[C@@]24OO3	21

test system: Plasmodium falciparum; assay: Antimalarial activity against Plasmodium falciparum NF54; type: functional, organism-based; conditions: not given

Structure (SMILES)	IC50 [nM]
C[C@H]1[C@H](N2CCN(C(=O)c3ccc(C(F)(F)F)cc3)CC2)O[C@@H]2O[C@]3(C)CC[C@H]4[C@H](C)CC[C@@H]1[C@@]24OO3	0.49
C[C@H]1[C@H](N2CCN(C(=O)Nc3ccc(F)cc3)CC2)O[C@@H]2O[C@]3(C)CC[C@H]4[C@H](C)CC[C@@H]1[C@@]24OO3	1.21
C[C@H]1[C@H](N2CCN(C(=O)Nc3ccccc3)CC2)O[C@@H]2O[C@]3(C)CC[C@H]4[C@H](C)CC[C@@H]1[C@@]24OO3	1.3

test system: Plasmodium falciparum; assay: Antimalarial activity against chloroquine-sensitive Plasmodium falciparum NF54; type: functional, organism-based; conditions: not given

Structure (SMILES)	IC50 [nM]
C[C@H]1[C@H](OC(=O)c2cccc([N+](=O)[O-])c2)O[C@@H]2O[C@]3(C)CC[C@H]4[C@H](C)CC[C@@H]1[C@@]24OO3	10.6
C[C@H]1[C@H](OC(=O)c2ccc([N+](=O)[O-])cc2)O[C@@H]2O[C@@]3(C)CC[C@H]4[C@H](C)CC[C@@H]1[C@@]24OO3	8.54

test system: Plasmodium falciparum; assay: Potency index, ratio of artemisinin IC50 to test compound IC50 for Plasmodium falciparum D6; type: functional; conditions: not given

Structure (SMILES)	Ratio IC50
CC(=O)/C=C/N1C(=O)[C@H](C)[C@@H]2CC[C@@H](C)[C@@H]3CC[C@]4(C)OO[C@]32[C@H]1O4	2.54
C[C@@H]1CC[C@H]2[C@@H](C)C(=O)N(CC(=O)c3ccccc3)[C@@H]3O[C@]4(C)CC[C@@H]1[C@@]23OO4	1.8
CC(=O)CN1C(=O)[C@H](C)[C@@H]2CC[C@@H](C)[C@@H]3CC[C@]4(C)OO[C@]32[C@H]1O4	3.2
C[C@@H]1CC[C@H]2[C@@H](C)C(=O)N(/C=C\C#N)[C@@H]3O[C@H]4CC[C@@H]1[C@@]23OO4	2.7
CCC(O)C[C@H]1O[C@@H]2O[C@]3(C)CC[C@H]4[C@H](C)CC[C@@H]([C@H]1C)[C@@]24OO3 (stereo not given in full)	5.8
C[C@H]1[C@@H](CC(O)C(C)(C)C)O[C@@H]2O[C@]3(C)CC[C@H]4[C@H](C)CC[C@@H]1[C@@]24OO3 (stereo not given in full)	5.4
COC(=O)/C=C/N1C(=O)[C@H](C)[C@@H]2CC[C@@H](C)[C@@H]3CC[C@]4(C)OO[C@]32[C@H]1O4	2

test system: Plasmodium falciparum; assay: Potency index, ratio of artemisinin IC50 to test compound IC50 for Plasmodium falciparum W2; type: functional; conditions: not given

Structure (SMILES)	Ratio IC50
CC(=O)/C=C/N1C(=O)[C@H](C)[C@@H]2CC[C@@H](C)[C@@H]3CC[C@]4(C)OO[C@]32[C@H]1O4	1.25
C[C@@H]1CC[C@H]2[C@@H](C)C(=O)N(CC(=O)c3ccccc3)[C@@H]3O[C@]4(C)CC[C@@H]1[C@@]23OO4	1.8
CC(=O)CN1C(=O)[C@H](C)[C@@H]2CC[C@@H](C)[C@@H]3CC[C@]4(C)OO[C@]32[C@H]1O4	3
C[C@@H]1CC[C@H]2[C@@H](C)C(=O)N(/C=C\C#N)[C@@H]3O[C@H]4CC[C@@H]1[C@@]23OO4	1.7
CCC(O)C[C@H]1O[C@@H]2O[C@]3(C)CC[C@H]4[C@H](C)CC[C@@H]([C@H]1C)[C@@]24OO3 (stereo not given in full)	4.8
C[C@H]1[C@@H](CC(O)C(C)(C)C)O[C@@H]2O[C@]3(C)CC[C@H]4[C@H](C)CC[C@@H]1[C@@]24OO3 (stereo not given in full)	6.8
COC(=O)/C=C/N1C(=O)[C@H](C)[C@@H]2CC[C@@H](C)[C@@H]3CC[C@]4(C)OO[C@]32[C@H]1O4	1.2

test system: Plasmodium berghei; assay: Antimalarial activity against Plasmodium berghei infected in sc dosed mouse; type: functional; conditions: not given

Structure (SMILES)	IC100 [mg/kg/day]
CCCCCC[C@H]1C(=O)O[C@@H]2O[C@]3(C)CC[C@H]4[C@H](C)CC[C@@H]1[C@@]24OO3	8

same assay, conditions: Plasmodium berghei

Structure (SMILES)	ED50 [mg/kg]
Cc1ccc([C@@H]2O[C@@H]3O[C@]4(C)CC[C@H]5[C@H](C)CC[C@@H]([C@H]2C)[C@@]35OO4)o1	0.9

test system: Plasmodium falciparum; assay: Antimalarial activity against Plasmodium falciparum Dd2; type: functional, organism-based; conditions: not given

Structure (SMILES)	IC50 [nM]
C[C@H]1[C@H](N2CCN(C(=O)c3ccc(C(F)(F)F)cc3)CC2)O[C@@H]2O[C@]3(C)CC[C@H]4[C@H](C)CC[C@@H]1[C@@]24OO3	13.2
C[C@H]1[C@H](N2CCN(C(=O)Nc3ccc(F)cc3)CC2)O[C@@H]2O[C@]3(C)CC[C@H]4[C@H](C)CC[C@@H]1[C@@]24OO3	9.2
C[C@H]1[C@H](N2CCN(C(=O)Nc3ccccc3)CC2)O[C@@H]2O[C@]3(C)CC[C@H]4[C@H](C)CC[C@@H]1[C@@]24OO3	7.5

test system: Plasmodium falciparum; assay: Antimalarial activity against Plasmodium falciparum D10; type: functional, organism-based; conditions: not given

Structure (SMILES)	IC50 [nM]
C[C@H]1[C@@H](OCc2ccc(C(=O)N(CCNc3ccnc4cc(Cl)ccc34)CC(=O)NC(C)(C)C)cc2)O[C@@H]2O[C@]3(C)CC[C@H]4[C@H](C)CC[C@@H]1[C@@]24OO3	27
C[C@H]1[C@@H](OCc2ccc(C(=O)N(CCNc3ccnc4cc(Cl)ccc34)CC(=O)NC3CCCCC3)cc2)O[C@@H]2O[C@]3(C)CC[C@H]4[C@H](C)CC[C@@H]1[C@@]24OO3	26
C[C@H]1[C@H](N2CCN([C@@H]3O[C@H](CO)[C@@H](O)[C@H](O)[C@H]3O)CC2)O[C@@H]2O[C@]3(C)CC[C@H]4[C@H](C)CC[C@@H]1[C@@]24OO3	0.87
CC1(C)OOC2(OCCC34CC5CC(CC(C5)C3)C4)CCCC1C2 (stereo not given)	580
C[C@H]1[C@@H](OCc2ccc(C(=O)N(CCCNc3ccnc4cc(Cl)ccc34)CC(=O)NC3CCCCC3)cc2)O[C@@H]2O[C@]3(C)CC[C@H]4[C@H](C)CC[C@@H]1[C@@]24OO3	35
CC1(C)OOC2(OCCCC34CC5CC(CC(C5)C3)C4)CCCC1C2 (stereo not given)	240
CC1(C)OOC2(OCCc3ccccc3)CCCC1C2 (stereo not given)	670
C[C@H]1[C@H](N2CCN([C@@H]3O[C@@H](C)[C@H](O)[C@@H](O)[C@H]3O)CC2)O[C@@H]2O[C@]3(C)CC[C@H]4[C@H](C)CC[C@@H]1[C@@]24OO3	0.74
Cc1ccccc1COC12CCCC(C1)C(C)(C)OO2 (stereo not given)	740

test system: Plasmodium falciparum; assay: Antimalarial activity against chloroquine sensitive Plasmodium falciparum FCR-3; type: functional, organism-based; conditions: not given

Structure (SMILES)	IC50 [nM]
C[C@H]1[C@H](n2cc(-c3ccccc3C(F)(F)F)nn2)O[C@@H]2O[C@]3(C)CC[C@H]4[C@H](C)CC[C@@H]1[C@@]24OO3	4.6
C[C@H]1[C@H](n2cc(-c3ccc(F)cc3)nn2)O[C@@H]2O[C@]3(C)CC[C@H]4[C@H](C)CC[C@@H]1[C@@]24OO3	1.4
C[C@H]1[C@H](n2cc(-c3cccc(Cl)c3)nn2)O[C@@H]2O[C@]3(C)CC[C@H]4[C@H](C)CC[C@@H]1[C@@]24OO3	1.3

test system: Plasmodium falciparum; assay: Antimalarial activity against ART-resistant Plasmodium falciparum harboring R539T mutant assessed as increase in survival at 700 nM; type: functional; conditions: not given

Structure (SMILES)	Activity [%]
N[C@H]1CC[C@@H](Oc2ccc([C@H]3CC[C@]4(CC3)OOC3(O4)C4CC5CC(C4)CC3C5)cc2)CC1 (stereo not given in full)	<0.01
c1cc([C@H]2CC[C@]3(CC2)OOC2(O3)C3CC4CC(C3)CC2C4)ccc1OCCC1CCNCC1 (stereo not given in full)	<0.01
c1cc([C@H]2CC[C@]3(CC2)OOC2(O3)C3CC4CC(C3)CC2C4)ccc1OCCN1CCOCC1 (stereo not given in full)	<0.01
FC1(F)C2CC3CC1CC(C2)C31OO[C@]2(CC[C@@H](c3ccc(OCCN4CCOCC4)cc3)CC2)O1 (stereo not given in full)	<0.01
CC1(C)CC(O)(COc2ccc([C@H]3CC[C@]4(CC3)OOC3(O4)C4CC5CC(C4)CC3C5)cc2)CC(C)(C)N1 (stereo not given in full)	<0.01
